Assay results taken from ChEMBL document CHEMBL1138610, “Peganine hydrochloride dihydrate an orally active antileishmanial agent” (Bioorg Med Chem Lett, 2009).
In brackets after ≈: the same amount, converted by molar mass. Activity calls are given as the source filed them. No cut-off for these calls is given here.

What was measured:
[1] = tested on: Leishmania donovani; experiment: Antileishmanial activity against Leishmania donovani promastigotes assessed as inhibition of parasite multiplication at 10 ug/ml; type: functional; parameters: scale not given: the % may be the effect or the level left
[2] = tested on: Leishmania donovani; experiment: Antileishmanial activity against Leishmania donovani amastigote infected in mouse J774A1 cells expressing green fluorescence protein by flow cytometry; type: functional, organism-based; details: J774.A1
[3] = tested on: Leishmania donovani; experiment: Antileishmanial activity against Leishmania donovani infected in hamster assessed inhibition of parasite growth at 40 mg/kg, po after 5 days; type: functional; parameters: scale not given: the % may be the effect or the level left
[4] = tested on: Leishmania donovani; experiment: Antileishmanial activity against Leishmania donovani infected in hamster assessed inhibition of parasite growth at 200 mg/kg, po after 5 days; type: functional; parameters: scale not given: the % may be the effect or the level left
[5] = tested on: Leishmania donovani; experiment: Antileishmanial activity against Leishmania donovani infected in hamster assessed inhibition of parasite growth at 100 mg/kg, po after 5 days; type: functional; parameters: scale not given: the % may be the effect or the level left
[6] = tested on: Leishmania donovani; experiment: Antileishmanial activity against Leishmania donovani promastigotes expressing green fluorescence protein by flow cytometry; type: functional
[7] = tested on: Leishmania donovani; experiment: Antileishmanial activity against Leishmania donovani promastigotes expressing green fluorescence protein assessed as decrease in mean fluorescence intensity; type: functional, organism-based
[8] = tested on: Leishmania donovani; experiment: Antileishmanial activity against Leishmania donovani amastigote infected in mouse J774A1 cells expressing green fluorescence protein assessed as decrease in mean fluorescence intensity up to 25 ug/ml; type: functional, organism-based; details: J774.A1
[9] = tested on: J774.A1; experiment: Cytotoxicity against mouse J774A1 cells at 200 uM after 48 hrs by MTT assay; type: cell-based; details: j774.a1, 48 h
[10] = tested on: Leishmania donovani; experiment: Antileishmanial activity against Leishmania donovani amastigote infected in mouse J774A1 cells expressing green fluorescence protein assessed as decrease in mean fluorescence intensity at 30 to 100 ug/ml; type: functional, organism-based; details: J774.A1
[11] = tested on: Leishmania donovani; experiment: Antileishmanial activity against Leishmania donovani infected in hamster assessed inhibition of parasite growth at 50 mg/kg, po after 5 days; type: functional, organism-based; parameters: dose 50 mg/kg

Row | IC50 [2] | IC90 [2] | IC50 [7] | IC90 [7] | SMILES | Activity [1] | Activity [3] | Activity [4] | Activity [5] | Activity [6] | Activity [7] | Activity [8] | Activity [9] | Activity [10] | Activity [11]
1 | 5 µg/mL (≈ 12.3 µM) |  |  |  | CCCCCCCCCCCCCCCCOP(=O)([O-])OCC[N+](C)(C)C [MILTEFOSINE] | 50% |  |  |  |  |  |  |  |  | 
2 | 41 µg/mL | 85 µg/mL | 38 µg/mL | 75 µg/mL | Cl.OC1CCN2Cc3ccccc3N=C12 (stereo not given) [PEGANINE HYDROCHLORIDE] |  | 95.5% | 87.5% | 79.6% | 50% | Dose-dependent effect | Active | Non-toxic | Active | inactive
